Test results published in article PMC5766581, “NF-κB inducing kinase is a therapeutic target for systemic lupus erythematosus” (Nature Communications, 2018).

Tests used:
Test in all cases: SelectScreen kinase panel
Assay type in all cases: binding
ALK2 = target: T1, ALK2 (Homo sapiens, UniProt Q04771)
T1 construct: purchased Invitrogen / ThermoFisher SelectScreen
Experimental: (§1) The ability of NIK to catalyze the hydrolysis of adenosine-5′-triphosphate (ATP) was monitored using the Transcreener ADP (adenosine-5′-diphosphate) assay (Bell Brook Labs, Fitchburg, WI). Purified human NIK kinase domain (a.a. 340–694) (0.5 nM) or mouse NIK kinase domain (a.a. 329–675) (1 nM) derived from a baculovirus-infected insect cell expression system was incubated with test compounds for 0.5–2 h in 50 mM HEPES buffer (pH 7.2) containing 10 mM MgCl2, 2 mM dithiothreitol, 10 μM ATP, 0.01% Triton X-100, 0.1% gamma-globulins from bovine blood, 1% dimethylsulfoxide (DMSO), 7 μg/mL ADP antibody and 5 nM ADP-MR121 633 tracer. Reactions were quenched by the addition of 20 mM EDTA and 0.01% Brij 35. The tracer bound to the antibody was displaced by the ADP generated during the NIK reaction, which caused a decrease in fluorescence polarization that was measured by laser excitation at 633 nm with a Fluorescence Correlation Spectroscopy Plus reader (Evotec AG). Equilibrium dissociation constant (Ki) values for NIK inhibitors are calculated from plots of activity vs. inhibitor concentration using Morrison’s quadratic equation that accounts for the potential of tight binding, and by also applying the conversion factor that accounted for competitive inhibition and the concentration of substrate used in the assay relative to its Michaelis constant (Km). The Ki values with hPKD1 (PKCμ) were determined using the same assay conditions as for NIK. Ki measurements for hKHS1 and hLRRK2, as well as broad kinase selectivity profiling for SMI1, were carried out by Invitrogen using their SelectScreen kinase assay panel (ThermoFisher Scientific, Madison, WI). The vendor offered two types of kinase activity assays, a peptide phosphorylation assay (Z′-LYTE) and an ADP quantitation assay (Adapta), as well as one type of kinase ATP site competitive binding assay (LanthaScreen). See vendor web site for technology and protocol details for each specific kinase assay.
(§2) The average % Inhibition of each kinase is reported (Supplementary Table 1).

ASK1 = target: T2, ASK1 (Homo sapiens, UniProt Q99683)
T2 construct: purchased Invitrogen / ThermoFisher SelectScreen
Experimental: as §1, §2

AVCR2B = target: T3, AVCR2B (Homo sapiens, UniProt Q13705)
T3 construct: purchased Invitrogen / ThermoFisher SelectScreen
T3 sequence (Q13705 19-512): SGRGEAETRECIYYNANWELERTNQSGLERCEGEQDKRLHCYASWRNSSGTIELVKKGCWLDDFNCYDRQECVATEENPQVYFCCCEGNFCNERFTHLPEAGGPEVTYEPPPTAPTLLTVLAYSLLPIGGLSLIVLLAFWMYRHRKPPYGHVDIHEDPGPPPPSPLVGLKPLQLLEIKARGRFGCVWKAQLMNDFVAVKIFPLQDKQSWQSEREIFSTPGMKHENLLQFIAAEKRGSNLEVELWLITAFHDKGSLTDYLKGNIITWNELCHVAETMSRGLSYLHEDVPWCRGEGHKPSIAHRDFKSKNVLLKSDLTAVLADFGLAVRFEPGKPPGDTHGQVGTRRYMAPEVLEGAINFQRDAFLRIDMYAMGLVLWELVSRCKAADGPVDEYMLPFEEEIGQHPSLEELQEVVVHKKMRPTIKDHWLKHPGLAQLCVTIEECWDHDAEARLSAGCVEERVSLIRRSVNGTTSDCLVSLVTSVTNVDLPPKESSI
Experimental: as §1, §2

B -Raf = target: T4, B -Raf (Homo sapiens, UniProt P15056)
T4 construct: purchased Invitrogen / ThermoFisher SelectScreen
Experimental: as §1, §2

BMPR1A = target: T5, BMPR1A (Homo sapiens, UniProt P36894)
T5 construct: purchased Invitrogen / ThermoFisher SelectScreen
Experimental: as §1, §2

CAMKK1 = target: T6, CAMKK1 (Homo sapiens, UniProt Q8N5S9)
T6 construct: purchased Invitrogen / ThermoFisher SelectScreen
Experimental: as §1, §2

CDK8/cyclinC = target: T7, CDK8/cyclinC (Homo sapiens, UniProt P49336)
T7 construct: purchased Invitrogen / ThermoFisher SelectScreen
Experimental: as §1, §2

CLK4 = target: T8, CLK4 (Homo sapiens, UniProt Q9HAZ1)
T8 construct: purchased Invitrogen / ThermoFisher SelectScreen
Experimental: as §1, §2

DDR1 = target: T9, DDR1 (Homo sapiens, UniProt Q08345)
T9 construct: purchased Invitrogen / ThermoFisher SelectScreen
Experimental: as §1, §2

DMPK = target: T10, DMPK (Homo sapiens, UniProt Q09013)
T10 construct: purchased Invitrogen / ThermoFisher SelectScreen
Experimental: as §1, §2

DRAK1 = target: T11, DRAK1 (Homo sapiens, UniProt Q9UEE5)
T11 construct: purchased Invitrogen / ThermoFisher SelectScreen
Experimental: as §1, §2

EphA3 = target: T12, EphA3 (Homo sapiens, UniProt P29320)
T12 construct: purchased Invitrogen / ThermoFisher SelectScreen
Experimental: as §1, §2

JNK2 = target: T13, JNK2 (Homo sapiens, UniProt P45984)
T13 construct: purchased Invitrogen / ThermoFisher SelectScreen
Experimental: as §1, §2

JNK3 = target: T14, JNK3 (Homo sapiens, UniProt P53779)
T14 construct: purchased Invitrogen / ThermoFisher SelectScreen
Experimental: as §1, §2

LIMK1 = target: T15, LIMK1 (Homo sapiens, UniProt P53667)
T15 construct: purchased Invitrogen / ThermoFisher SelectScreen
Experimental: as §1, §2

MEK1 = target: T16, MEK1 (Homo sapiens, UniProt Q02750)
T16 construct: purchased Invitrogen / ThermoFisher SelectScreen
Experimental: as §1, §2

MEK3 = target: T17, MEK3 (Homo sapiens, UniProt P46734)
T17 construct: purchased Invitrogen / ThermoFisher SelectScreen
Experimental: as §1, §2

MEKK2 = target: T18, MEKK2 (Homo sapiens, UniProt Q9Y2U5)
T18 construct: purchased Invitrogen / ThermoFisher SelectScreen
T18 sequence (Q9Y2U5 whole entry): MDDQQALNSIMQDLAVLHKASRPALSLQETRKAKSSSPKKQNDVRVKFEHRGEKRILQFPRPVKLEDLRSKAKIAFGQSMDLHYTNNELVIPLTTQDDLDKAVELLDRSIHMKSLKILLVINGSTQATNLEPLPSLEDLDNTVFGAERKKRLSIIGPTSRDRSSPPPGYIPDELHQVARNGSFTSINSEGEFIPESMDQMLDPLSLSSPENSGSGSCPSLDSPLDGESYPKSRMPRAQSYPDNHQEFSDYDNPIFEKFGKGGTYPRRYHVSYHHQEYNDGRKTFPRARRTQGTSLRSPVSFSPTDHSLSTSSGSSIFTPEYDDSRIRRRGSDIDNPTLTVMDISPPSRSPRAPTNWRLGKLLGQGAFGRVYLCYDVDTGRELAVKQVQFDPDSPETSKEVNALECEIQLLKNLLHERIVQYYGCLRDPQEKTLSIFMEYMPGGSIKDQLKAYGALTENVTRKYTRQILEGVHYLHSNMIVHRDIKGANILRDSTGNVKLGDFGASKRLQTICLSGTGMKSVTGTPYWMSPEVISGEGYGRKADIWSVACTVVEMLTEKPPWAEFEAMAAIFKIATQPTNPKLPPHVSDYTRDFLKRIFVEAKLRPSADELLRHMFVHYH
Experimental: as §1, §2

MKK6 = target: T19, MKK6 (Homo sapiens, UniProt P52564)
T19 construct: purchased Invitrogen / ThermoFisher SelectScreen
Experimental: as §1, §2

MKNK2 = target: T20, MKNK2 (Homo sapiens, UniProt Q9HBH9)
T20 construct: purchased Invitrogen / ThermoFisher SelectScreen
T20 sequence (Q9HBH9 whole entry): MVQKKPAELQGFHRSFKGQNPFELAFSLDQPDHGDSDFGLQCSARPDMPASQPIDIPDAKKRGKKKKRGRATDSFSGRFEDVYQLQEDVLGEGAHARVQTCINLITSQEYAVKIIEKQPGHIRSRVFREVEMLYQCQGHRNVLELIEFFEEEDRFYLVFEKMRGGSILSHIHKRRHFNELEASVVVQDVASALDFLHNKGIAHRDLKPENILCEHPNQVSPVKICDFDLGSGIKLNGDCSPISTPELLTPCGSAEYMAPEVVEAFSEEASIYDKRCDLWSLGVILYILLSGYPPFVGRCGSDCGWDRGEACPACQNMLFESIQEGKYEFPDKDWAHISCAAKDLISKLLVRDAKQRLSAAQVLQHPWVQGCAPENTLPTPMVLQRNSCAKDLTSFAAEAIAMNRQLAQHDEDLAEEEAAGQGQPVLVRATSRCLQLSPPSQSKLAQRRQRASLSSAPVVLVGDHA
Experimental: as §1, §2

MLK2 = target: T21, MLK2 (Homo sapiens, UniProt Q02779)
T21 construct: purchased Invitrogen / ThermoFisher SelectScreen
Experimental: as §1, §2

MYLK = target: T22, MYLK (Homo sapiens, UniProt Q15746)
T22 construct: purchased Invitrogen / ThermoFisher SelectScreen
Experimental: as §1, §2

MYLK3 = target: T23, MYLK3 (Homo sapiens, UniProt Q32MK0)
T23 construct: purchased Invitrogen / ThermoFisher SelectScreen
Experimental: as §1, §2

NLK = target: T24, NLK (Homo sapiens, UniProt Q9UBE8)
T24 construct: purchased Invitrogen / ThermoFisher SelectScreen
Experimental: as §1, §2

RAF1 (Y340D, Y341D) = target: T25, RAF1 (Y340D, Y341D) (Homo sapiens, UniProt P04049, Y340D/Y341D)
T25 construct: purchased Invitrogen / ThermoFisher SelectScreen
Experimental: as §1, §2

RIPK2 = target: T26, RIPK2 (Homo sapiens, UniProt O43353)
T26 construct: purchased Invitrogen / ThermoFisher SelectScreen
T26 sequence (O43353 whole entry): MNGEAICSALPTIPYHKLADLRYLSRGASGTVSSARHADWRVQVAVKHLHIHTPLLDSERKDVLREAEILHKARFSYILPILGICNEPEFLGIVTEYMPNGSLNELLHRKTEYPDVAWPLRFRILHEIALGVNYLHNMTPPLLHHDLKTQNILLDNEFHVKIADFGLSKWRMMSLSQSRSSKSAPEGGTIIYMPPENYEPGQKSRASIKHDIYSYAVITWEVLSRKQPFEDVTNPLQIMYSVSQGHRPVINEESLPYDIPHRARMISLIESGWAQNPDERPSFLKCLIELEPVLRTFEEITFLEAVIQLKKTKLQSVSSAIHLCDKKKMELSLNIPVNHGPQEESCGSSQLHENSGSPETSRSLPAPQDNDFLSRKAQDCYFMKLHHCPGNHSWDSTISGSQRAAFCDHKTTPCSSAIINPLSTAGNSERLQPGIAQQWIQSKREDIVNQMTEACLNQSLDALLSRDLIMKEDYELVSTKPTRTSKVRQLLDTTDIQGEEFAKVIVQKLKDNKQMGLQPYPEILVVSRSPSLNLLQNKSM
Experimental: as §1, §2

STK16 = target: T27, STK16 (Homo sapiens, UniProt O75716)
T27 construct: purchased Invitrogen / ThermoFisher SelectScreen
Experimental: as §1, §2

STK33 = target: T28, STK33 (Homo sapiens, UniProt Q9BYT3)
T28 construct: purchased Invitrogen / ThermoFisher SelectScreen
Experimental: as §1, §2

TAK1-TAB1 = target: T29, TAK1-TAB1 (Homo sapiens, UniProt O43318)
T29 construct: purchased Invitrogen / ThermoFisher SelectScreen
Experimental: as §1, §2

TEC = target: T30, TEC (Homo sapiens, UniProt P42680)
T30 construct: purchased Invitrogen / ThermoFisher SelectScreen
T30 sequence (P42680 whole entry): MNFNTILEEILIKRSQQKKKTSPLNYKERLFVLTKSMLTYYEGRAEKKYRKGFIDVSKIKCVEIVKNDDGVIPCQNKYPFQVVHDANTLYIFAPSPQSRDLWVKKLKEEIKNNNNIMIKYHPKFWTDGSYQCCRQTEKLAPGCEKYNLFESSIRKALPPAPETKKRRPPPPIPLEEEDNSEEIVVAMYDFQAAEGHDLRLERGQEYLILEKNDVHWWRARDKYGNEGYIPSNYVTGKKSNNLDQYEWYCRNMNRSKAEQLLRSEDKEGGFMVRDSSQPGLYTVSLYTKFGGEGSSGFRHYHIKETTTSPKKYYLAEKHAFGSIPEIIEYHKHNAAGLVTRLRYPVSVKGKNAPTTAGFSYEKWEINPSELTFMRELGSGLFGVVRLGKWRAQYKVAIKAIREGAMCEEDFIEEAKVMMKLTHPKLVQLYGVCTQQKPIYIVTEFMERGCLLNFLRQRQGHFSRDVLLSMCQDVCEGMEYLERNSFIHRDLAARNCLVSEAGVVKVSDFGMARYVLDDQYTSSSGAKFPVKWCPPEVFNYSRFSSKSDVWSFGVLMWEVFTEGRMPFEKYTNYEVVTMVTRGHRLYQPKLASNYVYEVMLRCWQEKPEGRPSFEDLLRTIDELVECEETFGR
Experimental: as §1, §2

TGFBR1 = target: T31, TGFBR1 (Homo sapiens, UniProt P36897)
T31 construct: purchased Invitrogen / ThermoFisher SelectScreen
Experimental: as §1, §2

TNK2 = target: T32, TNK2 (Homo sapiens, UniProt Q07912)
T32 construct: purchased Invitrogen / ThermoFisher SelectScreen
T32 sequence (Q07912 whole entry): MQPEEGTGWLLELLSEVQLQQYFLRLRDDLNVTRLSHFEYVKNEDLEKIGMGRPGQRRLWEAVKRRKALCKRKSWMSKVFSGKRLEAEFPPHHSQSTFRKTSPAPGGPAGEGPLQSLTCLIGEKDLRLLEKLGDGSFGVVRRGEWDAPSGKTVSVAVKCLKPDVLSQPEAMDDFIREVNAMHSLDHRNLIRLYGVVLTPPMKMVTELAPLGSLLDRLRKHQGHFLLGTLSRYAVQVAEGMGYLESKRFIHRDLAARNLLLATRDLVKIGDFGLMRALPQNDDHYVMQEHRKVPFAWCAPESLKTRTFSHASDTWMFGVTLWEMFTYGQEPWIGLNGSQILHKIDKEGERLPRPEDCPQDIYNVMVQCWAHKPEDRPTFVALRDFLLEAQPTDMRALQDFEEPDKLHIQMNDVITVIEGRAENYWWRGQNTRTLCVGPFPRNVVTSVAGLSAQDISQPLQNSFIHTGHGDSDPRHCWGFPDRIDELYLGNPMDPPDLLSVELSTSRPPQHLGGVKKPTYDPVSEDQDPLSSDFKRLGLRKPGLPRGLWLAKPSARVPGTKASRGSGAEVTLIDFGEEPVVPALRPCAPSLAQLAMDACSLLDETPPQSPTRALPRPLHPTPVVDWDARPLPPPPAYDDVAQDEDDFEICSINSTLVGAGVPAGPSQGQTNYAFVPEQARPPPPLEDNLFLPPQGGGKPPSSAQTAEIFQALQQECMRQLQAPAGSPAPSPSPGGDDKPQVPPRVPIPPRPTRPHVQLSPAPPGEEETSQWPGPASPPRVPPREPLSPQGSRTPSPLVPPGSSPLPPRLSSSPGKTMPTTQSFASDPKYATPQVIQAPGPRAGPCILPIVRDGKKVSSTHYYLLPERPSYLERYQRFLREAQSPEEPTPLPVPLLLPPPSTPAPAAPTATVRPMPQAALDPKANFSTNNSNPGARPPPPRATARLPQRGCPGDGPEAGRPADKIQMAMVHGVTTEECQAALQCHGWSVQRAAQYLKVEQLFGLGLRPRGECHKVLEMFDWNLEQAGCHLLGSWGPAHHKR
Experimental: as §1, §2

WEE1 = target: T33, WEE1 (Homo sapiens, UniProt P30291)
T33 construct: purchased Invitrogen / ThermoFisher SelectScreen
T33 sequence (P30291 whole entry): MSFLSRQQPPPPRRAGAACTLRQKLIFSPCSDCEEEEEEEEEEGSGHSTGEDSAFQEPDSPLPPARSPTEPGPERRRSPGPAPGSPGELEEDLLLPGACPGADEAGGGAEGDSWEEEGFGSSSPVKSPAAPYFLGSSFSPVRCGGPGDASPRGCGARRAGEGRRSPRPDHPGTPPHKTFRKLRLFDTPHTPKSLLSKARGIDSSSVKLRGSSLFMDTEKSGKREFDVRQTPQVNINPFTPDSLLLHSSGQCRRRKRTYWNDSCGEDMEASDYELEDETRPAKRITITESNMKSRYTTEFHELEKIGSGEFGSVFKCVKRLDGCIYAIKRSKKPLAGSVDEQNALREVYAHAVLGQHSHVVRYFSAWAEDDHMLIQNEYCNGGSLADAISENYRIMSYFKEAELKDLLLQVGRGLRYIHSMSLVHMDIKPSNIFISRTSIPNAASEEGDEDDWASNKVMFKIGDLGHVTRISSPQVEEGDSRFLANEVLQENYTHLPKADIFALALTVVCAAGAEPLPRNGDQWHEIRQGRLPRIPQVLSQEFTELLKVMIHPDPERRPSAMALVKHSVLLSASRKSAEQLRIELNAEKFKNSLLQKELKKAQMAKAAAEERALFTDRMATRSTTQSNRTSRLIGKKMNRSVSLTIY
Experimental: as §1, §2

T1 sequence (Q04771 21-509): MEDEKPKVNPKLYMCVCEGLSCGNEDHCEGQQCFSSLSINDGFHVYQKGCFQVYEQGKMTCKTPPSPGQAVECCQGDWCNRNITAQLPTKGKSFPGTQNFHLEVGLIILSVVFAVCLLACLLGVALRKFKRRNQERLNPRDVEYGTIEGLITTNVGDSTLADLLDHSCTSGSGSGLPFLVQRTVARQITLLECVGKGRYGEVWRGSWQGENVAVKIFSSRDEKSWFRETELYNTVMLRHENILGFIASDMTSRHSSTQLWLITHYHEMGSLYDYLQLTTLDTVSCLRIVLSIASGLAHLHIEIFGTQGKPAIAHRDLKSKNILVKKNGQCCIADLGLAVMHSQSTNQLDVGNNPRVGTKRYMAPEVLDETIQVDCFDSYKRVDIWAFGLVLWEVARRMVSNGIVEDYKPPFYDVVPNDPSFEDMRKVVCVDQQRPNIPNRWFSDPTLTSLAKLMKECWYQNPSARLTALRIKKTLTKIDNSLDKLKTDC

## COc1cc(C(N)=O)nc(-c2cccc(C#C[C@]3(O)CCN(C)C3=O)c2)c1 [NIK SMI1]
ALK2
  inhibition at 1 µM: 5.8%
ASK1
  inhibition at 1 µM: 3.8%
AVCR2B
  inhibition at 1 µM: 0.8%
B -Raf
  inhibition at 1 µM: -0.3%
BMPR1A
  inhibition at 1 µM: -3.9%
CAMKK1
  inhibition at 1 µM: -11.6%
CDK8/cyclinC
  inhibition at 1 µM: 7.8%
CLK4
  inhibition at 1 µM: 13.7%
DDR1
  inhibition at 1 µM: 2.7%
DMPK
  inhibition at 1 µM: 1.6%
DRAK1
  inhibition at 1 µM: 3.4%
EphA3
  inhibition at 1 µM: -5.2%
JNK2
  inhibition at 1 µM: 3%
JNK3
  inhibition at 1 µM: 4.6%
LIMK1
  inhibition at 1 µM: 16.8%
MEK1
  inhibition at 1 µM: 43.1%
MEK3
  inhibition at 1 µM: 11.4%
MEKK2
  inhibition at 1 µM: 66.8%
MKK6
  inhibition at 1 µM: 13.2%
MKNK2
  inhibition at 1 µM: 23.3%
MLK2
  inhibition at 1 µM: 9.9%
MYLK
  inhibition at 1 µM: 7.5%
MYLK3
  inhibition at 1 µM: 45.3%
NLK
  inhibition at 1 µM: 4.2%
RAF1 (Y340D, Y341D)
  inhibition at 1 µM: -1.5%
RIPK2
  inhibition at 1 µM: -0.1%
STK16
  inhibition at 1 µM: 1%
STK33
  inhibition at 1 µM: 3.9%
TAK1-TAB1
  inhibition at 1 µM: 31.1%
TEC
  inhibition at 1 µM: 1.1%
TGFBR1
  inhibition at 1 µM: -9.4%
TNK2
  inhibition at 1 µM: 0.1%
WEE1
  inhibition at 1 µM: 6.2%
